Assay results as given in the CheMixHub ionic liquid set.

Test: xn = mol fraction of the nth substance listed
Settings: 100 kPa

CCCCCCCC[n+]1ccccc1.[Br-] + CC(C)[C@H](NC(=O)CN)C(=O)O + O
Settings	electrical conductivity [S/m]
288.15 K, x2 = 0.0008946, x1 = 0.00616	1.33
288.15 K, x2 = 0.0008949, x1 = 0.005884	1.29
288.15 K, x2 = 0.0008952, x1 = 0.005575	1.25
288.15 K, x2 = 0.0008955, x1 = 0.005248	1.21
288.15 K, x2 = 0.0008958, x1 = 0.004887	1.17
288.15 K, x2 = 0.0008961, x1 = 0.004507	1.12
288.15 K, x2 = 0.0008965, x1 = 0.004077	1.05
288.15 K, x2 = 0.0008969, x1 = 0.003608	0.964
288.15 K, x2 = 0.0008974, x1 = 0.003092	0.861
288.15 K, x2 = 0.0008979, x1 = 0.002527	0.74
288.15 K, x2 = 0.0008985, x1 = 0.001896	0.592
288.15 K, x2 = 0.0008988, x1 = 0.001509	0.493
288.15 K, x2 = 0.0008992, x1 = 0.001132	0.388
288.15 K, x2 = 0.0008995, x1 = 0.0007259	0.276
288.15 K, x2 = 0.001788, x1 = 0.005723	1.23
288.15 K, x2 = 0.001788, x1 = 0.005981	1.26
288.15 K, x2 = 0.001789, x1 = 0.005422	1.19
288.15 K, x2 = 0.00179, x1 = 0.004738	1.11
288.15 K, x2 = 0.00179, x1 = 0.005091	1.15
288.15 K, x2 = 0.001791, x1 = 0.004351	1.06
288.15 K, x2 = 0.001792, x1 = 0.003932	0.991
288.15 K, x2 = 0.001793, x1 = 0.002974	0.81
288.15 K, x2 = 0.001793, x1 = 0.003476	0.909
288.15 K, x2 = 0.001794, x1 = 0.002419	0.692
288.15 K, x2 = 0.001796, x1 = 0.001458	0.463
288.15 K, x2 = 0.001796, x1 = 0.001805	0.55
288.15 K, x2 = 0.001797, x1 = 0.0007114	0.261
288.15 K, x2 = 0.001797, x1 = 0.001099	0.365
293.15 K, x2 = 0.0008946, x1 = 0.006158	1.51
293.15 K, x2 = 0.0008949, x1 = 0.005882	1.47
293.15 K, x2 = 0.0008952, x1 = 0.005573	1.42
293.15 K, x2 = 0.0008955, x1 = 0.005248	1.38
293.15 K, x2 = 0.0008958, x1 = 0.004887	1.32
293.15 K, x2 = 0.0008961, x1 = 0.004505	1.27
293.15 K, x2 = 0.0008965, x1 = 0.004077	1.19
293.15 K, x2 = 0.0008969, x1 = 0.003608	1.1
293.15 K, x2 = 0.0008974, x1 = 0.003092	0.974
293.15 K, x2 = 0.0008979, x1 = 0.002527	0.84
293.15 K, x2 = 0.0008985, x1 = 0.001896	0.67
293.15 K, x2 = 0.0008988, x1 = 0.001509	0.557
293.15 K, x2 = 0.0008992, x1 = 0.001132	0.437
293.15 K, x2 = 0.0008995, x1 = 0.0007259	0.309
293.15 K, x2 = 0.001788, x1 = 0.005721	1.4
293.15 K, x2 = 0.001788, x1 = 0.005981	1.44
293.15 K, x2 = 0.001789, x1 = 0.00542	1.36
293.15 K, x2 = 0.00179, x1 = 0.004736	1.26
293.15 K, x2 = 0.00179, x1 = 0.005091	1.31
293.15 K, x2 = 0.001791, x1 = 0.004351	1.2
293.15 K, x2 = 0.001792, x1 = 0.003932	1.12
293.15 K, x2 = 0.001793, x1 = 0.002972	0.917
293.15 K, x2 = 0.001793, x1 = 0.003476	1.03
293.15 K, x2 = 0.001794, x1 = 0.002419	0.785
293.15 K, x2 = 0.001796, x1 = 0.001458	0.521
293.15 K, x2 = 0.001796, x1 = 0.001805	0.621
293.15 K, x2 = 0.001797, x1 = 0.0007114	0.293
293.15 K, x2 = 0.001797, x1 = 0.001099	0.411
298.15 K, x2 = 0.0008946, x1 = 0.006158	1.7
298.15 K, x2 = 0.0008949, x1 = 0.00588	1.65
298.15 K, x2 = 0.0008952, x1 = 0.005573	1.6
298.15 K, x2 = 0.0008955, x1 = 0.005246	1.55
298.15 K, x2 = 0.0008958, x1 = 0.004885	1.49
298.15 K, x2 = 0.0008961, x1 = 0.004505	1.43
298.15 K, x2 = 0.0008965, x1 = 0.004077	1.34
298.15 K, x2 = 0.0008969, x1 = 0.003608	1.23
298.15 K, x2 = 0.0008974, x1 = 0.003092	1.1
298.15 K, x2 = 0.0008979, x1 = 0.002527	0.942
298.15 K, x2 = 0.0008985, x1 = 0.001896	0.751
298.15 K, x2 = 0.0008988, x1 = 0.001509	0.623
298.15 K, x2 = 0.0008992, x1 = 0.001132	0.489
298.15 K, x2 = 0.0008995, x1 = 0.0007259	0.343
298.15 K, x2 = 0.001788, x1 = 0.005721	1.59
298.15 K, x2 = 0.001788, x1 = 0.00598	1.64
298.15 K, x2 = 0.001789, x1 = 0.00542	1.54
298.15 K, x2 = 0.00179, x1 = 0.004736	1.42
298.15 K, x2 = 0.00179, x1 = 0.005091	1.49
298.15 K, x2 = 0.001791, x1 = 0.004349	1.35
298.15 K, x2 = 0.001792, x1 = 0.003932	1.27
298.15 K, x2 = 0.001793, x1 = 0.002972	1.03
298.15 K, x2 = 0.001793, x1 = 0.003476	1.17
298.15 K, x2 = 0.001794, x1 = 0.002419	0.883
298.15 K, x2 = 0.001796, x1 = 0.001458	0.586
298.15 K, x2 = 0.001796, x1 = 0.001805	0.699
298.15 K, x2 = 0.001797, x1 = 0.0007114	0.326
298.15 K, x2 = 0.001797, x1 = 0.001099	0.462
303.15 K, x2 = 0.0008946, x1 = 0.006155	1.91
303.15 K, x2 = 0.0008949, x1 = 0.005878	1.86
303.15 K, x2 = 0.0008952, x1 = 0.005571	1.8
303.15 K, x2 = 0.0008955, x1 = 0.005244	1.74
303.15 K, x2 = 0.0008958, x1 = 0.004883	1.67
303.15 K, x2 = 0.0008961, x1 = 0.004503	1.6
303.15 K, x2 = 0.0008965, x1 = 0.004075	1.49
303.15 K, x2 = 0.0008969, x1 = 0.003606	1.38
303.15 K, x2 = 0.0008974, x1 = 0.003092	1.22
303.15 K, x2 = 0.0008979, x1 = 0.002527	1.05
303.15 K, x2 = 0.0008985, x1 = 0.001896	0.834
303.15 K, x2 = 0.0008988, x1 = 0.001509	0.689
303.15 K, x2 = 0.0008992, x1 = 0.001132	0.543
303.15 K, x2 = 0.0008995, x1 = 0.0007259	0.385
303.15 K, x2 = 0.001788, x1 = 0.005719	1.79
303.15 K, x2 = 0.001788, x1 = 0.005978	1.84
303.15 K, x2 = 0.001789, x1 = 0.005417	1.73
303.15 K, x2 = 0.00179, x1 = 0.004734	1.6
303.15 K, x2 = 0.00179, x1 = 0.005087	1.67
303.15 K, x2 = 0.001791, x1 = 0.004349	1.52
303.15 K, x2 = 0.001792, x1 = 0.00393	1.42
303.15 K, x2 = 0.001793, x1 = 0.002972	1.16
303.15 K, x2 = 0.001793, x1 = 0.003474	1.3
303.15 K, x2 = 0.001794, x1 = 0.002419	0.983
303.15 K, x2 = 0.001796, x1 = 0.001458	0.652
303.15 K, x2 = 0.001796, x1 = 0.001805	0.778
303.15 K, x2 = 0.001797, x1 = 0.0007114	0.361
303.15 K, x2 = 0.001797, x1 = 0.001099	0.512
308.15 K, x2 = 0.0008946, x1 = 0.006153	2.17
308.15 K, x2 = 0.0008949, x1 = 0.005877	2.11
308.15 K, x2 = 0.0008952, x1 = 0.00557	2.04
308.15 K, x2 = 0.0008955, x1 = 0.005243	1.95
308.15 K, x2 = 0.0008958, x1 = 0.004881	1.86
308.15 K, x2 = 0.0008961, x1 = 0.004503	1.77
308.15 K, x2 = 0.0008965, x1 = 0.004075	1.66
308.15 K, x2 = 0.0008969, x1 = 0.003606	1.52
308.15 K, x2 = 0.0008974, x1 = 0.003092	1.35
308.15 K, x2 = 0.0008979, x1 = 0.002525	1.15
308.15 K, x2 = 0.0008985, x1 = 0.001896	0.905
308.15 K, x2 = 0.0008988, x1 = 0.001509	0.753
308.15 K, x2 = 0.0008992, x1 = 0.001132	0.6
308.15 K, x2 = 0.0008995, x1 = 0.0007259	0.446
308.15 K, x2 = 0.001788, x1 = 0.005717	2
308.15 K, x2 = 0.001788, x1 = 0.005974	2.06
308.15 K, x2 = 0.001789, x1 = 0.005415	1.94
308.15 K, x2 = 0.00179, x1 = 0.004732	1.78
308.15 K, x2 = 0.00179, x1 = 0.005087	1.86
308.15 K, x2 = 0.001791, x1 = 0.004348	1.68
308.15 K, x2 = 0.001792, x1 = 0.00393	1.58
308.15 K, x2 = 0.001793, x1 = 0.002972	1.28
308.15 K, x2 = 0.001793, x1 = 0.003474	1.44
308.15 K, x2 = 0.001794, x1 = 0.002419	1.09
308.15 K, x2 = 0.001796, x1 = 0.001456	0.714
308.15 K, x2 = 0.001796, x1 = 0.001805	0.853
308.15 K, x2 = 0.001797, x1 = 0.0007114	0.409
308.15 K, x2 = 0.001797, x1 = 0.001099	0.567
